Experimental data taken from patent US5998453A, “Oxazolidinone compounds and pharmaceutical preparation containing them” (Schering Aktiengesellschaft, priority 1984, dated 1999).

test system: weight increase caused by croton oil; assay: rat ear test according to Tonelli (croton oil), topical anti-inflammatory activity; assay type: in vivo, Wistar rats; details: 5 hours after treatment

Going from `COc1ccc(C2CNC(=O)C2)cc1OC1CCCC1` (stereo not drawn) [Compound 4, 4-(3-Cyclopentyloxy-4-methoxyphenyl)-2-pyrrolidone] to `COc1ccc(C2CNC(=O)C2)cc1OC1CCOC1` (stereo not drawn) [Compound 5, 4-[4-Methoxy-3-(3-tetrahydrofuryloxy)phenyl]-2-pyrrolidone], the ED50 falls from 0.6 mg/kg to 0.2 mg/kg (3-fold).

`CCCCOc1ccc(CC(=O)NO)cc1` [Compound 1, Bufexamac] and `O=C(O)COc1nn(Cc2ccccc2)c2ccccc12` [Compound 2, Bendazac] are the same in ED50: 15 mg/kg for the first, 15 mg/kg for the second.

First: CCCC(=O)OC1(C(=O)CO)CCC2C3CCC4=CC(=O)CCC4(C)C3C(O)CC21C (stereo not drawn) [Compound 3, Hydrocortisone 17-butyrate]
Second: COc1ccc(C2CNC(=O)C2)cc1OCC(C)C (stereo not drawn) [Compound 6, 4-(3-Isobutoxy-4-nmethoxypheny1)-2-pyrrolidone]
The ED50 of the first is 2.2-fold lower: 0.5 mg/kg for the first, 1.1 mg/kg for the second.
